Results taken from patent publication US20050014811A1, “Substituted benzimidazole compounds and their use for the treatment of cancer” (Aventis Pharma S.A., priority 2001, published 2005).

How the values were obtained:
[1] = molecular target: CDK4/CyclinD1 (Homo sapiens, UniProt P11802); assay: CDK4/CyclinD1 Flashplate assay, 96-well format, biotinylated-Rb peptide substrate; assay type: biochemical
Method in brief: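 Biotinylated Rb peptide bound to streptavidin Flashplate; CDK4/CyclinD1 (70 ng/well) preincubated 30 min on ice with compound at 10, 3, 1, 0.3 and 0.1 μM final. Reaction with 1 μM cold ATP plus 33P-ATP for 45 min at RT; incorporated 33P counted, duplicates.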

[2] = molecular target: CDK2/CyclinE (Homo sapiens, UniProt P24941); assay: CDK2/CyclinE Flashplate assay, 96-well format, biotinylated-Rb peptide substrate; assay type: biochemical
Method in brief: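 Biotinylated Rb peptide was captured on streptavidin Flashplates, and CDK2/CyclinE (200 ng/well) was preincubated 30 min on ice with inhibitor at 10, 3, 1, 0.3 or 0.1 μM final. Reactions ran 45 min at RT with 1 μM ATP plus 1 μCi ^33P-ATP. After washing, incorporated ^33P was counted, in duplicate.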

Sequence of CDK4/CyclinD1 (P11802 whole entry, species assumed): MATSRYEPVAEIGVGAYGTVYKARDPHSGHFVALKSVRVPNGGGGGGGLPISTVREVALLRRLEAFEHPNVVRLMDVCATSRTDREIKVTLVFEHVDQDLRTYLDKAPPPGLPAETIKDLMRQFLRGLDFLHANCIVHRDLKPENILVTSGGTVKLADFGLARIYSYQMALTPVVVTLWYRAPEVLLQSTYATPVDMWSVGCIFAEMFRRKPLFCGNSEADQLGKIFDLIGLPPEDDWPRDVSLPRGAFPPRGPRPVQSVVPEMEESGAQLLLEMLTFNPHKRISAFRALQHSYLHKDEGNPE
Sequence of CDK4/CyclinD1 (P24385 whole entry partner, species assumed): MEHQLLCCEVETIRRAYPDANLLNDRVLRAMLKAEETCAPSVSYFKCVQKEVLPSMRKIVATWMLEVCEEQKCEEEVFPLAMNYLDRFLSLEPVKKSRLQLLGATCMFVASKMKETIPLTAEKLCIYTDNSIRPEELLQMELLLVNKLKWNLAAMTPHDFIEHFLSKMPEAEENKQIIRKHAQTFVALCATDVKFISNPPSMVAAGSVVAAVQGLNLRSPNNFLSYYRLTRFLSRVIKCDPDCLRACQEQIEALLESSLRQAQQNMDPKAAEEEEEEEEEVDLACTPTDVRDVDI

Row | SMILES | IC50 [1] [nM] | IC50 [2] [nM] | inhibition at 10 µM [1] [%]
1 | O=C(NCCCN1CCCC1)Nc1nc2cc(OS(=O)(=O)c3ccc(NCC4CCCO4)cc3)ccc2[nH]1 (stereo not shown) [Example 59-h, 4-[(Tetrahydro-furan-2-ylmethyl)-amino]-benzenesulfonic acid 2-[3-(3-pyrrolidin-1-yl-propyl)-ureido]-1H-benzoimidazol-5-yl ester] | 1100 | 200 | 
2 | O=C(Nc1nc2cc(OS(=O)(=O)c3ccc(-n4ccnc4)cc3)ccc2[nH]1)NC1CCCCC1 [Example 57-b, 4-Imidazol-1-yl-benzenesulfonic acid 2-(3-cyclohexyl-ureido)-1H-benzoimidazol-5-yl ester] |  | 1900 | 51
3 | O=C(NCCOCCO)Nc1nc2cc(OS(=O)(=O)c3ccc(NC4CCCC4)cc3)ccc2[nH]1 [Example 58-af, 4-Cyclopentylamino-benzenesulfonic acid 2-{3-[2-(2-hydroxy-ethoxy)-ethyl]-ureido}-1H-benzoimidazol-5-yl ester] | 210 | 180 | 
4 | O=C(Nc1cccc(Cl)c1)Nc1nc2cc(OS(=O)(=O)c3ccc(NC4CCCC4)cc3)ccc2[nH]1 [Example 42, 4-Cyclopentylamino-benzenesulfonic acid 2-[3-(3-chloro-phenyl)-ureido]-1H-benzoimidazol-5-yl ester] |  | 910 | 84
5 | O=C(NCCN1CCCC1)Nc1nc2cc(OS(=O)(=O)c3ccc(NCC4CCCO4)cc3)ccc2[nH]1 (stereo not shown) [Example 59-g, 4-[(Tetrahydro-furan-2-ylmethyl)-amino]-benzenesulfonic acid 2-[3-(2-pyrrolidin-1-yl-ethyl)-ureido]-1H-benzoimidazol-5-yl ester] | 1800 | 200 | 
6 | COC(=O)[C@H](CO)NC(=O)Nc1nc2cc(OS(=O)(=O)c3ccc(NC4CCCC4)cc3)ccc2[nH]1 [Example 58-an, 2-{3-[5-(4-Cyclopentylamino-benzenesulfonyloxy)-1H-benzoimidazol-2-yl]-ureido}-3S-hydroxy-propionic acid methyl ester] | 200 | 100 | 
7 | CCNc1ccc(S(=O)(=O)Oc2ccc3[nH]c(NC(=O)OC)nc3c2)cc1 [Example 6, Methyl-5-(4-ethylaminophenylsulfonyloxy) benzimidazole-2-carbamate] | 840 | 300 | 
8 | O=C(Nc1ccccc1)Nc1nc2cc(OS(=O)(=O)c3ccc(-n4ccnc4)cc3)ccc2[nH]1 [Example 57-a, 4-Imidazol-1-yl-benzenesulfonic acid 2-(3-phenyl-ureido)-1H-benzoimidazol-5-yl ester] | 1000 | 240 | 
9 | O=C(NCCNCCO)Nc1nc2cc(OS(=O)(=O)c3ccc(NCC4CCCO4)cc3)ccc2[nH]1 (stereo not shown) [Example 59-q, 4-[(Tetrahydro-furan-2-ylmethyl)-amino]-benzenesulfonic acid 2-{3-[2-(2-hydroxy-ethylamino)-ethyl]-ureido}-1H-benzoimidazol-5-yl ester] | 750 | 110 | 
10 | COC(=O)Nc1nc2cc(OS(=O)(=O)c3ccc(NCCS(=O)(=O)O)cc3)ccc2[nH]1 [Example 15, Methyl-5-(4-[2-sulfonylethyl]aminophenylsulfonyloxy) benzimidazole-2-carbamate] | 300 | 1800 | 
11 | COC(=O)Nc1nc2cc(OS(=O)(=O)c3ccc(NCc4ccccn4)cc3)ccc2[nH]1 [Example 5, Methyl-5-(4-[2-pyridylmethyl]aminophenylsulfonyloxy) benzimidazole-2-carbamate] | 1120 | 2200 | 

Next, values leading:

Row | IC50 [1] [nM] | IC50 [2] [nM] | inhibition at 10 µM [1] [%] | SMILES
12 | 500 | 9 |  | O=C(NCc1cccnc1)Nc1nc2cc(OS(=O)(=O)c3ccc(NC4CCCC4)cc3)ccc2[nH]1 [Example 58-j, 4-Cyclopentylamino-benzenesulfonic acid 2-(3-pyridin-3-ylmethyl-ureido)-1H-benzoimidazol-5-yl ester]
13 | 29 | 20 |  | COC(=O)CNC(=O)Nc1nc2cc(OS(=O)(=O)c3ccc(NC4CCCC4)cc3)ccc2[nH]1 [Example 58-o, 4-{3-[5-(4-Cyclopentylamino-benzenesulfonyloxy)-1H-benzoimidazol-2-yl]-ureido}-acetic acid methyl ester]
14 | 300 | 7 |  | O=C(NCCO)Nc1nc2cc(OS(=O)(=O)c3ccc(NCC4CCCO4)cc3)ccc2[nH]1 (stereo not shown) [Example 59-b, 4-[(Tetrahydro-furan-2-ylmethyl)-amino]-benzenesulfonic acid 2-[3-(2-hydroxy-ethyl)-ureido]-1H-benzoimidazol-5-yl ester]
15 | 130 | 16 |  | NC(=O)CCNC(=O)Nc1nc2cc(OS(=O)(=O)c3ccc(NC4CCCC4)cc3)ccc2[nH]1 [Example 58-ad, 4-Cyclopentylamino-benzenesulfonic acid 2-[3-(2-carbamoyl-ethyl)-ureido]-1H-benzoimidazol-5-yl ester]
16 | 2800 | 60 |  | O=C(NCc1cccc(F)c1)Nc1nc2cc(OS(=O)(=O)c3ccc(NC4CCCC4)cc3)ccc2[nH]1 [Example 41, 4-Cyclopentylamino-benzenesulfonic acid 2-[3-(3-fluoro-benzyl)-ureido]-1H-benzoimidazol-5-yl ester]
17 | 290 | 10 |  | O=C(NCC1CCNCC1)Nc1nc2cc(OS(=O)(=O)c3ccc(NC4CCCC4)cc3)ccc2[nH]1 [Example 58-u, 4-Cyclopentylamino-benzenesulfonic acid 2-(3-piperidin-4-ylmethyl-ureido)-1H-benzoimidazol-5-yl ester]
18 | 300 | 40 |  | COCCNC(=O)Nc1nc2cc(OS(=O)(=O)c3ccc(NC4CCCC4)cc3)ccc2[nH]1 [Example 48, 4-Cyclopentylamino-benzenesulfonic acid 2-[3-(2-methoxy-ethyl)-ureido]-1H-benzoimidazol-5-yl ester]
19 | 1000 | 80 |  | O=C(NCc1ccncc1)Nc1nc2cc(OS(=O)(=O)c3ccc(NC4CCCC4)cc3)ccc2[nH]1 [Example 52, 4-Cyclopentylamino-benzenesulfonic acid 2-(3-pyridin-4-ylmethyl-ureido)-1H-benzoimidazol-5-yl ester]
20 | 100 | 40 |  | O=C(NCCO)Nc1nc2cc(OS(=O)(=O)c3ccc(NC4CCCC4)cc3)ccc2[nH]1 [Example 58-e, 4-Cyclopentylamino-benzenesulfonic acid 2-[3-(2-hydroxy-ethyl)-ureido]-1H-benzoimidazol-5-yl ester]
21 | 270 | 10 |  | O=C(NCCCO)Nc1nc2cc(OS(=O)(=O)c3ccc(NC4CCCC4)cc3)ccc2[nH]1 [Example 58-y, 4-Cyclopentylamino-benzenesulfonic acid 2-[3-(3-hydroxy-propyl)-ureido]-1H-benzoimidazol-5-yl ester]
22 | 4400 | 100 |  | O=C(NCc1ccccc1F)Nc1nc2cc(OS(=O)(=O)c3ccc(-n4ccnc4)cc3)ccc2[nH]1 [Example 57-h, 4-Imidazol-1-yl-benzenesulfonic acid 2-[3-(2-fluoro-benzyl)-ureido]-1H-benzoimidazol-5-yl ester]
23 | 300 | 20 |  | O=C(NCc1ccccn1)Nc1nc2cc(OS(=O)(=O)c3ccc(NCC4CCCO4)cc3)ccc2[nH]1 (stereo not shown) [Example 59-k, 4-[(Tetrahydro-furan-2-ylmethyl)-amino]-benzenesulfonic acid 2-(3-pyridin-2-ylmethyl-ureido)-1H-benzoimidazol-5-yl ester]
